Laboratory results from paper PMC10733197, “Utilization of Rosuvastatin and Endogenous Biomarkers in Evaluating the Impact of Ritlecitinib on BCRP, OATP1B1, and OAT3 Transporter Activity” (Pharmaceutical Research, 2023).

Key:
[1] = target: T1, OATP1B1 (Homo sapiens, UniProt Q9Y6L6); assay: OATP1B1-mediated CP-I uptake inhibition in transfected HEK293 cells; assay type: cell-based
T1 construct: expressed in transfected cells; host or cells: HEK293
T1 sequence (Q9Y6L6 1-691): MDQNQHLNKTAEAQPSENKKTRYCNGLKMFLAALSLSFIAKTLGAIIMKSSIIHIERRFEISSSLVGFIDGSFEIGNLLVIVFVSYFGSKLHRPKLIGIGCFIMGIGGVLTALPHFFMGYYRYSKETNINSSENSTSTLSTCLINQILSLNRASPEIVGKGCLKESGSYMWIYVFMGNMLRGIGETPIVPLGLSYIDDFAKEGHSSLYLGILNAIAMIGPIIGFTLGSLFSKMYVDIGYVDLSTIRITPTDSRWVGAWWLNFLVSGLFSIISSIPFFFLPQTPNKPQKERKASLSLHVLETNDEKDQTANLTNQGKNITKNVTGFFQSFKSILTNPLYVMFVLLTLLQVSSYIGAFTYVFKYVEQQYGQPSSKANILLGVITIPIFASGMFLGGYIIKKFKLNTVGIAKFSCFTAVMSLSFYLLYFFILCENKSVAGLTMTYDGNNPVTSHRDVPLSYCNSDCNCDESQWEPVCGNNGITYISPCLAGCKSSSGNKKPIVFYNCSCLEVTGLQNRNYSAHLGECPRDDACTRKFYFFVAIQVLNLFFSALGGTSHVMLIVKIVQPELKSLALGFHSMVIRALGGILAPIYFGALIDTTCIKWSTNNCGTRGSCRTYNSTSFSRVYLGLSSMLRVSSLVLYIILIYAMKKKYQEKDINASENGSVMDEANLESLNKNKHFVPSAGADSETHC
Description: (§1) Sources of human embryonic kidney (HEK) 293 cells expressing individual transfected human solute carriers (SLC), test substrates, and cell culture reagents, as well as detailed cell culture methods, incubations, and sample processing, have been described previously. SLC included hepatic OATP1B1, OATP1B3, and renal OAT1 and OAT3. […] Likewise, the uptake of non-labeled rosuvastatin (Biosynth, San Diego, CA) at 0.3—0.5 µM was determined for OATP1B1 and OATP1B3 at 1—3 min, and CP-I (Frontier Specialty Chemicals, Logan, UT) at 0.1 µM was determined for OATP1B1 and OATP1B3 at 10 min [14].
(§2) In all cases, ritlecitinib (0.018 to 1000 µM) and metabolite M2 (0.018 to 300 µM) was tested over a wide range of final concentrations dissolved in dimethyl sulfoxide (the final concentration of dimethyl sulfoxide in the assays was 1% v/v). For each transporter, the IC50 was estimated using a four-parameter logistic equation (Eq. 1) using GraphPad Prism software (GraphPad Software Inc, La Jolla, CA).1 %UptakeActivity=Bottom+(Top-Bottom)/1+10^(LogIC50-inhib*HillSlope)
Uptake of CP-I was determined by analysis of the in vitro assay samples using an optimized LC-high resolution mass spectrometry (HRMS) method. In brief, dried samples were reconstituted in 150 µL of 0.1% formic acid and analyzed by LC-HRMS. Analyte separation and detection was achieved using a Shimadzu Nexera high performance LC system (Shimazdu Scientific, MA, USA) coupled to a Sciex API-6600 Q-TOF (time of flight) mass spectrometer with a Turbo IonDrive source (Sciex Corporation, MA, USA). Chromatographic separation was achieved using a Waters Acquity BEH C18 1.7µ 2.1 mm x 100 mm column and a binary mobile phase system consisting of 0.1% v/v formic acid and 0.1% v/v formic acid in acetonitrile, as mobile phase A and B, respectively. The column temperature was held at 60 °C and the flow rate was 0.55 mL/minute. The gradient program had initial conditions of 5% B which was held for 0.9 min, followed by a linear ramp to 95% B over 5.1 min, a hold for 1.0 min, and a return to starting conditions over 0.1 min with re-equilibration for 0.9 min (total run time of 8.0 min). Analyte detection was achieved using an API-6600 Q T-OF mass spectrometer with electrospray ionization (ESI). The mass spectrometer was operated in both TOF-MS and TOF-MS/MS mode with data collected over a 60 to 670 dalton mass range. TOF-MS/MS data were collected in the high-resolution mode. Quantification of CP-I levels was assessed using targeted TOF-MS/MS data with accumulation times of 150 and 35 ms, respectively, for CP-I and the internal standard (ISTD) verapamil. […]

[2] = test system: CYP3A; conditions: cited from earlier work
[3] = target: T2, OATP1B3 (Homo sapiens, UniProt Q9NPD5); assay: OATP1B3-mediated CP-I uptake inhibition in transfected HEK293 cells; assay type: cell-based
T2 construct: expressed in transfected cells; host or cells: HEK293
T2 sequence (Q9NPD5 1-702): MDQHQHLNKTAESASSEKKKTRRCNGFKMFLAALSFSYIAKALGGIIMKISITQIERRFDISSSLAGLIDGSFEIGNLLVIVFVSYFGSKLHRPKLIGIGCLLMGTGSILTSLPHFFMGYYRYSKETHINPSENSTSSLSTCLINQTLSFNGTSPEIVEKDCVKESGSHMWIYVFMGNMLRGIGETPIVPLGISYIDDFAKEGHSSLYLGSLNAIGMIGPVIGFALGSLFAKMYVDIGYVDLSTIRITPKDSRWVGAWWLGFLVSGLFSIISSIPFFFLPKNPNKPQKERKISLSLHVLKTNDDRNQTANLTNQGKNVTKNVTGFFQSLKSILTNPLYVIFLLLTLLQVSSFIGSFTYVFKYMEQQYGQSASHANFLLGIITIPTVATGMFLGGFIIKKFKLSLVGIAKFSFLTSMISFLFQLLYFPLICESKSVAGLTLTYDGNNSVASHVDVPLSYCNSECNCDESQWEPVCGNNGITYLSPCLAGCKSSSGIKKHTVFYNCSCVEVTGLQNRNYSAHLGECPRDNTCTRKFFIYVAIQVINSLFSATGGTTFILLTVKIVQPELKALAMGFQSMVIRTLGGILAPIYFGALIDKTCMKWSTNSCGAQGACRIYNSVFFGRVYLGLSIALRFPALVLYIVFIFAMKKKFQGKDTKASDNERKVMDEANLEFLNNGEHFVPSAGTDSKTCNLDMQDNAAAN
Description: as §1, §2
Uptake of CP-I was determined by analysis of the in vitro assay samples using an optimized LC-high resolution mass spectrometry (HRMS) method. In brief, dried samples were reconstituted in 150 µL of 0.1% formic acid and analyzed by LC-HRMS. Analyte separation and detection was achieved using a Shimadzu Nexera high performance LC system (Shimazdu Scientific, MA, USA) coupled to a Sciex API-6600 Q-TOF (time of flight) mass spectrometer with a Turbo IonDrive source (Sciex Corporation, MA, USA). Chromatographic separation was achieved using a Waters Acquity BEH C18 1.7µ 2.1 mm x 100 mm column and a binary mobile phase system consisting of 0.1% v/v formic acid and 0.1% v/v formic acid in acetonitrile, as mobile phase A and B, respectively. The column temperature was held at 60 °C and the flow rate was 0.55 mL/minute. The gradient program had initial conditions of 5% B which was held for 0.9 min, followed by a linear ramp to 95% B over 5.1 min, a hold for 1.0 min, and a return to starting conditions over 0.1 min with re-equilibration for 0.9 min (total run time of 8.0 min). Analyte detection was achieved using an API-6600 Q T-OF mass spectrometer with electrospray ionization (ESI). The mass spectrometer was operated in both TOF-MS and TOF-MS/MS mode with data collected over a 60 to 670 dalton mass range. TOF-MS/MS data were collected in the high-resolution mode. Quantification of CP-I levels was assessed using targeted TOF-MS/MS data with accumulation times of 150 and 35 ms, respectively, for CP-I and the internal standard (ISTD) verapamil. Data were processed using the MultiQuant software package using the targeted mass-to-charge transitions of 328.1 to 268.1201 ± 0.02 daltons and 238.1094 ± 0.02 daltons (summed ions) for CP-I, and 455.2 to 165.0907 ± 0.02 daltons for the ISTD (verapamil), to generate analyte/ISTD area ratios.

[4] = parameters: method as in data not published; conditions: ref data not published, cited from earlier work

With `C=CC(=O)N1C[C@H](Nc2ncnc3[nH]ccc23)CC[C@@H]1C` [Ritlecitinib, ritlecitinib] as the compound, how does the “Triggers Drug Interaction Cutoff” value ([1]; OATP1B1 (CP-I)) read?
The value was “Yes”.

What about the R-value ([1]; OATP1B1 (CP-I), 1 + (Imax,inlet,u/IC50), cutoff 1.1 (FDA), 1.04 (EMA)) of the same compound?
Its R-value is 1.12.

What about the “Fraction Inhibited” value ([1]; OATP1B1 (CP-I), Imax,inlet,u/(Imax,inlet,u + IC50) (Eq. 1)) of the same compound?
The value was 0.1.

What about the IC50 ([1]; hepatic OATP1B1, CP-I 0.1 µM as substrate, 10 min, HEK293, mean ± SD, n = 3) of the same compound?
Its IC50 is 257 ± 8 µM.

And the “inhibition of CYP3A” value ([2]; classification in words)?
Its value is “moderate inhibitor”.

And the “contribution of CYP3A pathway to metabolism of ritlecitinib” value ([2]; ref data not published)?
The value was < 25%.

What about the “Triggers Drug Interaction Cutoff” value ([3]; OATP1B3 (CP-I)) of the same compound?
Its value is “No”.

And the R-value ([3]; OATP1B3 (CP-I), 1 + (Imax,inlet,u/IC50), cutoff 1.1 (FDA), 1.04 (EMA))?
Its R-value is < 1.03.

And the “Fraction Inhibited” value ([3]; OATP1B3 (CP-I), Imax,inlet,u/(Imax,inlet,u + IC50) (Eq. 1))?
The value was < 0.03.

What about the IC50 ([3]; hepatic OATP1B3, CP-I 0.1 µM as substrate, 10 min, HEK293) of the same compound?
The IC50 was > 1000 µM.

What about the inhibition at 10 min, 1000 µM ([3]; human, HEK293 cells transfected with OATP1B3, probe coproporphyrin I (CP-I), 0.1 µM, OATP1B3 (CP-I), 1000 µM, read-out: % inhibition at the highest concentration tested) of the same compound?
The inhibition at 10 min, 1000 µM was 23%.

And the “steady-state accumulation ratio of AUC” value ([4]; 200 mg QD regimen, FIH study)?
Its value is 1.8.

What about the “half-life (arithmetic mean)” value ([4]; 200 mg single dose, first-in-human study) of the same compound?
The value was 1.75 h.

And the “steady-state of PK reached at” value ([4]; QD regimens, FIH study)?
The value was 4 days.
